Measured values taken from patent US20210139844A1, “REPROGRAMMING FIBROBLASTS TO RETINAL CELLS” (UNIVERSITY OF NORTH TEXAS HEALTH SCIENCE CENTER, priority 2017, published 2021).
Entries after “also recorded” stand apart in the source; their conditions may differ.

Experiments:
Nrl-GFP MEFs = test: Chemical reprogramming of Nrl-GFP MEFs to photoreceptor like cells (Nrl-GFP reporter); format: cell-based, mouse; details: for effect on reprogramming of removing the small molecule from the cocktail: small molecule subtracted from cocktail
Text: Identification of small molecules for derivation of photoreceptor-like cells (CiPPC). […] The inventors have exploited this phenomenon to find out additional small molecules those might be important for the determination of retinal neuron specific fate. An array of small molecule along with different medium compositions and time points has been tested as possible candidates. Mouse Embryonic Fibroblasts (MEFs) from a photoreceptor specific reporter mouse (Nrl-GFP) are used as starting cells for the reprogramming studies (Akimoto et al., PNAS 103:3890-95, 2006). If converted to photoreceptors, these MEFs would have GFP expression from the Nrl promoter. […] This conversion requires three additional factors Sonic Hedgehog (S), Taurine (T) and Retinoic acid (R) introduced on day 8 (d8) (FIG. 1A and FIG. 1B). […] The inventors have tested the importance of each small molecule in the reprogramming process by using Nrl-GFP MEFs as starting cells.
All small molecules diluted in DMSO according to manufacturer's instruction. On day 0 about 35000 MEFs were seeded in each well of a 24 well plate (0.1% gelatin coated for O/N). At day 1 change the medium with photoreceptor induction medium (PIM) with V (0.5 mM), C (4.8 μM), R (2 μM) F (10 βM). On day 3 change the medium (PIM) with V, C, R, F plus IWR1 (I, 10 βM). Change the medium (PIM) with VCRFI on d5 and d6. On day 8 add Sonichedgehog (S, 3 nM), taurine molecules and factors. Finally on day 11 cells with GFP expression were observed. For the differentiation replace the medium with photoreceptor differentiation medium (PDM) and keep them up to d15 to d16. […] Cells were fixed or analyzed on day 7.

mitochondrial ROS = test: Measurement of mitochondrial ROS (MitoSox staining, fluorometry); format: cell-based, mouse
Text: Mitochondrial ROS activates NF-kB which controls CiPPC reprogramming by retrograde signaling. Next the inventors investigated the reasons behind NFkβ activation. Known inducers of NF-kB are highly variable including TNFα, LPS, Ionizing radiation and mitochondrial ROS (Formentini et al., Mol Cell 45:731-42, 2012; Andreakos et al., Blood 103:2229-37, 2004). […] So the inventors contemplated that mitochondrial ROS generated by small molecule treatment may activate NF-kB. […] The inventors found increased accumulation of mitochondrial ROS indicator mitosox during reprogramming starting from d5 compared to control MEFs (FIG. 6A, FIG. 6B and FIG. 6C). To measure the importance of mROS during chemical reprogramming, conversion experiments were performed in the presence of mitochondrial ROS scavenger, mitotempo.
Measurement of mitochondrial ROS. Mitochondrial ROS was detected and quantified. […] Cells were then washed twice with PBS and fluorescence has been monitored with a microplate reader set to 510 nm excitation (Ex bandwidth: 10 nm) and 595 nm emission (Em bandwidth 35 nm) wavelengths. mROS generation was also micrographed by Leica fluorescence microscope an quantified in Leica Application Suite X Software. […] Average intensity within each ROI was measured and exported to Excel data sheet. Average change in fluorescence was calculated for each type of cells. […]

HepG2 cells = details: treated for several days; cited from earlier work
HFL1-Nrl-DsRed cells = test: Chemical reprogramming of human HFL1-Nrl-DsRed fibroblasts to photoreceptor like cells; format: cell-based; details: added during reprogramming
Text: Identification of small molecules for derivation of photoreceptor-like cells (CiPPC). To identify small molecules responsible for retinal neuron specific fate, the inventors followed previous studies describing a set of small molecules that can convert fibroblasts into neurons (Hu et al., Cell stem cell 17:204-12, 2015; Zhang et al., Cell stem cell 17:735-47, 2015; Fu et al., Cell research 25, 2015; Cheng et al., Cell research 25:1269-72, 2015). Four out of six small molecules described in these studies, Valproic acid (V), CHIR(C), Repsox (R) and Forskolin(F), are able to convert fibroblast cells into mixed progenitor stage (Fu et al., Cell research 25, 2015). The inventors have exploited this phenomenon to find out additional small molecules those might be important for the determination of retinal neuron specific fate. An array of small molecule along with different medium compositions and time points has been tested as possible candidates. Mouse Embryonic Fibroblasts (MEFs) from a photoreceptor specific reporter mouse (Nrl-GFP) are used as starting cells for the reprogramming studies (Akimoto et al., PNAS 103:3890-95, 2006). If converted to photoreceptors, these MEFs would have GFP expression from the Nrl promoter. […] This conversion requires three additional factors Sonic Hedgehog (S), Taurine (T) and Retinoic acid (R) introduced on day 8 (d8) (FIG. 1A and FIG. 1B). Human fibroblasts (HFL1, ATCC CCL153) can also be converted into photoreceptor like cells by these small molecules. The inventors first generated a HFL-1 cell line having a lentivirally transduced DsRed reporter downstream of Nrl promoter. Drug selected HFL1-Nrl-DsRed cells were used for the reprogramming by the previously described mouse specific protocol with some modifications (FIG. 1C). Round shaped and neuron like Nrl promoter driven DsRed positive cells were evident starting from d6 to d8 (FIG. 1D). […]
All small molecules diluted in DMSO according to manufacturer's instruction. […] Cells were fixed or analyzed on day 7.

Molecule: Cc1cnc(-c2cnc(NCCNc3ccc(C#N)cn3)nc2-c2ccc(Cl)cc2Cl)[nH]1 [CHIR, 6-[2-[[4-(2,4-dichlorophenyl)-5-(5-methyl-1H-imidazol-2-yl)pyrimidin-2-yl]amino]ethylamino]-pyridine-3-carbonitrile]
- effect on reprogramming of removing the small molecule from the cocktail (Nrl-GFP MEFs): worst effect on reprogramming process

Molecule: O=C(Nc1cccc2cccnc12)c1ccc(N2C(=O)[C@@H]3[C@H](C2=O)[C@@H]2C=C[C@H]3C2)cc1 [IWR1, N-(Quinolin-8-yl)-4-(exo-4-aza-3,5-dioxotricyclo[5.2.1.02,6]oct-8-en-4-yl)benzamide]
- mROS generation in reprogramming without the small molecule (mitochondrial ROS; d8): did not show increase in mROS generation
- conversion of GFP negative MEFs into GFP+ photoreceptor like cells (Nrl-GFP MEFs; in presence of VCRF, d10 to d11, S, T, R introduced on d8): can covert GFP negative MEFs into GFP^+ positive round shaped photoreceptor like cells
- effect on reprogramming of removing the small molecule from the cocktail (Nrl-GFP MEFs): worst effect on reprogramming process; also recorded: reduced the reprogramming efficiency

Molecule: Cc1cccc(-c2n[nH]cc2-c2ccc3ncccc3n2)n1 [Repsox, 2-(3-(6-Methylpyridin-2-yl)-1H-pyrazol-4-yl)-1,5-naphthyridine]
- effect on reprogramming of removing the small molecule from the cocktail (Nrl-GFP MEFs): worst effect on reprogramming process

Molecule: Oc1nc(-c2ccc(C(F)(F)F)cc2)nc2c1CSCC2 [XAV939]
- axin stabilization (HepG2 cells): can also stabilize the axin at cytosol

Molecule: CC1(C)CC(NC(=O)C[P+](c2ccccc2)(c2ccccc2)c2ccccc2)CC(C)(C)N1[O] [mitotempo]
- mROS generation upon scavenger treatment (mitochondrial ROS; mitoSox staining, fluorometric analysis): decrease of mROS generation
- yield of reprogrammed cells (Nrl-GFP MEFs; conversion in presence of mROS scavenger, printed as 'significantly decreased yield ... (20%)'): 20%
- number of Nrl-GFP+ reprogrammed cells at different concentrations (Nrl-GFP MEFs; data not shown): dose dependent relationship

B1: GDNF: factor added during human cell reprogramming (protein, UniProt P39905 78-211, looked up)
Glial cell line-derived …: SPDKQMAVLPRRERNRQAAAANPENSRGKGRRGQRGKNRGCVLTAIHLNVTDLGLGYETKEELIFRYCSGSCDAAETTYDKILKNLSRNRRLVSDKVGQACCRPIAFDDDLSFLDDNLVYHILRKHSAKRCGCI
- morphology of converted human photoreceptor like cells (HFL1-Nrl-DsRed cells): helped these converted human photoreceptor like cells to have a healthy morphology

B2: BDNF: factor added during human cell reprogramming (protein, UniProt P23560 129-247, looked up)
Neurotrophic factor BDNF: HSDPARRGELSVCDSISEWVTAADKKTAVDMSGGTVTVLEKVPVSKGQLKQYFYETKCNPMGYTKEGCRGIDKRHWNSQCRTTQSYVRALTMDSKKRIGWRFIRIDTSCVCTLTIKRGR
modifications: Neurotrophic factor BDNF
notes: factor added during human cell reprogramming
- morphology of converted human photoreceptor like cells (HFL1-Nrl-DsRed cells): helped these converted human photoreceptor like cells to have a healthy morphology

B3: NT3: factor added during human cell reprogramming (protein, UniProt P20783 139-257, looked up)
Neurotrophin-3: YAEHKSHRGEYSVCDSESLWVTDKSSAIDIRGHQVTVLGEIKTGNSPVKQYFYETRCKEARPVKNGCRGIDDKHWNSQCKTSQTYVRALTSENNKLVGWRWIRIDTSCVCALSRKIGRT
modifications: Neurotrophin-3
notes: as for B2
- morphology of converted human photoreceptor like cells (HFL1-Nrl-DsRed cells): helped these converted human photoreceptor like cells to have a healthy morphology
